Assay: logP by HPLC on a C18 phase inversion column, EEC Directive 79/831 Annex V.A8, method b) (HP1100, 5-95% acetonitrile in 1.70 min)
Assay type: physicochemical
Conditions: HPLC method b)
Method: ^b) Note regarding the determination of the log P values and mass detection: The log P values given were determined in accordance with EEC Directive 79/831 Annex V.A8 by HPLC (High Performance Liquid Chromatography) on a phase inversion column (C18). HP1100; 50*4.6 Zorbax Eclipse Plus C18 1.8 micron; eluent A: acetonitrile (0.1% formic acid); eluent B: water (0.08% formic acid); linear gradient from 5% acetonitrile to 95% acetonitrile in 1.70 min, then 95% acetonitrile for a further 1.00 min; oven temperature 55° C.; flow: 2.0 ml/min. The mass detection is carried out via the mass detector Micromass ZQ2000 from Waters.

SMILES | logP
Cn1nc(C(F)(F)C(F)(F)F)c(C(F)(F)F)c1C(=O)Nc1ccc(Cl)c(C(=O)NCc2ncn[nH]2)c1 [Ik-29] | 2.31^b)
CCCNC(=O)c1cc(NC(=O)c2c(C(F)(F)F)c(C(F)(F)C(F)(F)F)nn2C)ccc1Cl [Ik-30] | 3.23^b)
CN(C(=O)c1cc(NC(=O)c2c(C(F)(F)F)c(C(F)(F)C(F)(F)F)nn2C)ccc1Cl)C1CC1 [Ik-31] | 3.51^b)
Cn1nc(C(F)(F)C(F)(F)F)c(C(F)(F)F)c1C(=O)Nc1ccc(Cl)c(C(=O)NC2COC2)c1 [Ik-32] | 2.76^b)
CC(O)CNC(=O)c1cc(NC(=O)c2c(C(F)(F)F)c(C(F)(F)C(F)(F)F)nn2C)ccc1Cl (stereo not shown) [Ik-33] | 2.65^b)
COC(=O)CNC(=O)c1cc(NC(=O)c2c(C(F)(F)F)c(C(F)(F)C(F)(F)F)nn2C)ccc1Cl [Ik-34] | 3.04^b)
CC(C)N(C)C(=O)c1cc(NC(=O)c2c(C(F)(F)F)c(C(F)(F)C(F)(F)F)nn2C)ccc1Cl [Ik-35] | 3.73^b)
Cn1nc(C(F)(F)C(F)(F)F)c(C(F)(F)F)c1C(=O)Nc1ccc(Cl)c(C(=O)NCc2c(F)cccc2F)c1 [Ik-37] | 3.73^b)
CC(NC(=O)c1cc(NC(=O)c2c(C(F)(F)F)c(C(F)(F)C(F)(F)F)nn2C)ccc1Cl)c1ccccc1 (stereo not shown) [Ik-38] | 3.89^b)
Cn1nc(C(F)(F)C(F)(F)F)c(C(F)(F)F)c1C(=O)Nc1ccc(Cl)c(C(=O)NC2CCCC2)c1 [Ik-39] | 3.78^b)
Cn1nc(C(F)(F)C(F)(F)F)c(C(F)(F)F)c1C(=O)Nc1ccc(Cl)c(C(=O)NCCc2ccc(Cl)cc2)c1 [Ik-40] | 4.23^b)
Cn1nc(C(F)(F)C(F)(F)F)c(C(F)(F)F)c1C(=O)Nc1ccc(Cl)c(C(=O)NCC(C)(C)CF)c1 [Ik-42] | 3.68^b)
Cn1nc(C(F)(F)C(F)(F)F)c(C(F)(F)F)c1C(=O)Nc1ccc(Cl)c(C(=O)NCc2ccon2)c1 [Ik-43] | 3.02^b)
Cn1nc(C(F)(F)C(F)(F)F)c(C(F)(F)F)c1C(=O)Nc1ccc(Cl)c(C(=O)NC(C)(C)C=C(Cl)Cl)c1 [Ik-44] | 4.28^b)
Cn1nc(C(F)(F)C(F)(F)F)c(C(F)(F)F)c1C(=O)Nc1ccc(Cl)c(C(=O)NCC2(C)COC2)c1 [Ik-45] | 2.98^b)
Cn1nc(C(F)(F)C(F)(F)F)c(C(F)(F)F)c1C(=O)Nc1ccc(Cl)c(C(=O)NCC2CC2(C)C)c1 (stereo not shown) [Ik-46] | 4.11^b)
Cn1nc(C(F)(F)C(F)(F)F)c(C(F)(F)F)c1C(=O)Nc1ccc(Cl)c(C(=O)NC2CC2c2ccccc2)c1 (stereo not shown) [Ik-47] | 4.00^b)
Cn1nc(C(F)(F)C(F)(F)F)c(C(F)(F)F)c1C(=O)Nc1ccc(Cl)c(C(=O)NCC#N)c1 [Ik-48] | 2.93^b)
Cn1nc(C(F)(F)C(F)(F)F)c(C(F)(F)F)c1C(=O)Nc1ccc(Cl)c(C(=O)NCc2cccc(F)c2)c1 [Ik-49] | 3.78^b)
C=C(C)CNC(=O)c1cc(NC(=O)c2c(C(F)(F)F)c(C(F)(F)C(F)(F)F)nn2C)ccc1Cl [Ik-50] | 3.53^b)
Cn1nc(C(F)(F)C(F)(F)F)c(C(F)(F)F)c1C(=O)Nc1ccc(Cl)c(C(=O)NCc2ccccc2F)c1 [Ik-52] | 3.73^b)
CCOCCNC(=O)c1cc(NC(=O)c2c(C(F)(F)F)c(C(F)(F)C(F)(F)F)nn2C)ccc1Cl [Ik-53] | 3.28^b)
Cn1nc(C(F)(F)C(F)(F)F)c(C(F)(F)F)c1C(=O)Nc1ccc(Cl)c(C(=O)NCc2cc(F)ccc2F)c1 [Ik-54] | 3.84^b)
Cn1nc(C(F)(F)C(F)(F)F)c(C(F)(F)F)c1C(=O)Nc1ccc(Cl)c(C(=O)NC(C2CC2)C2CC2)c1 [Ik-61] | 4.00^b)
Cc1c(C(F)(F)C(F)(F)F)nn(C)c1C(=O)Nc1ccc(Cl)c(C(=O)NCc2ccccc2)c1 [Ik-271] | 3.42^b)

SMILES | logP
CCc1c(C(F)(F)C(F)(F)F)nn(C)c1C(=O)Nc1ccc(Cl)c(C(=O)NCc2ccccc2)c1 [Ik-272] | 3.68^b)
Cn1nc(C(F)(F)C(F)(F)F)c(C(F)(F)F)c1C(=O)Nc1ccc(Cl)c(C(=O)NCc2nc(C(F)(F)F)cs2)c1 [Ik-273] | 3.75^b)
Cn1nc(C(F)(F)C(F)(F)F)c(C(F)(F)F)c1C(=O)Nc1ccc(Cl)c(C(=O)NC(C)(C)C#N)c1 [Ik-274] | 3.37^b)
COCC(C)(C#N)NC(=O)c1cc(NC(=O)c2c(C(F)(F)F)c(C(F)(F)C(F)(F)F)nn2C)ccc1Cl (stereo not shown) [Ik-275] | 3.37^b)
Cn1cc(C(F)(F)F)nc1C(NC(=O)c1cc(NC(=O)c2c(C(F)(F)F)c(C(F)(F)C(F)(F)F)nn2C)ccc1Cl)C(F)(F)F (stereo not shown) [Ik-276] | 4.00^b)
Cc1csc(C(NC(=O)c2cc(NC(=O)c3c(C(F)(F)F)c(C(F)(F)C(F)(F)F)nn3C)ccc2Cl)C(F)(F)F)n1 (stereo not shown) [Ik-277] | 4.00^b)
Cn1nc(C(F)(F)C(F)(F)F)c(C(F)(F)F)c1C(=O)Nc1ccc(Cl)c(C(=O)NC2C=CS(=O)(=O)C2)c1 (stereo not shown) [Ik-278] | 2.80^b)
C[C@H]1C[C@H]1NC(=O)c1cc(NC(=O)c2c(C(F)(F)F)c(C(F)(F)C(F)(F)F)nn2C)ccc1Cl [Ik-279] | 3.37^b)
Cn1nc(C(F)(F)C(F)(F)F)c(C(F)(F)F)c1C(=O)Nc1ccc(Cl)c(C(=O)NCCOCC(F)(F)F)c1 [Ik-281] | 3.53^b)
Cn1nc(C(F)(F)C(F)(F)F)c(C(F)(F)F)c1C(=O)Nc1ccc(Cl)c(C(=O)NCc2ccccc2Cl)c1 [Ik-282] | 4.05^b)
Cn1nc(C(F)(F)C(F)(F)F)c(C(F)(F)F)c1C(=O)Nc1ccc(Cl)c(C(=O)NCc2ccc(Cl)cc2)c1 [Ik-283] | 4.05^b)
CC(NC(=O)c1cc(NC(=O)c2c(C(F)(F)F)c(C(F)(F)C(F)(F)F)nn2C)ccc1Cl)c1ccccc1F (stereo not shown) [Ik-284] | 4.00^b)
Cn1nc(C(F)(F)C(F)(F)F)c(C(F)(F)F)c1C(=O)Nc1ccc(Cl)c(C(=O)NC2CCOCC2)c1 [Ik-285] | 3.06^b)
CCC1CC1NC(=O)c1cc(NC(=O)c2c(C(F)(F)F)c(C(F)(F)C(F)(F)F)nn2C)ccc1Cl (stereo not shown) [Ik-286] | 3.84^b)
Cn1nc(C(F)(F)C(F)(F)F)c(C(F)(F)F)c1C(=O)Nc1ccc(Cl)c(C(=O)NC2CC=CC2)c1 [Ik-287] | 3.63^b)
CC(NC(=O)c1cc(NC(=O)c2c(C(F)(F)F)c(C(F)(F)C(F)(F)F)nn2C)ccc1Cl)C1(Cl)CC1 (stereo not shown) [Ik-288] | 4.05^b)
CSCC(C)(C)NC(=O)c1cc(NC(=O)c2c(C(F)(F)F)c(C(F)(F)C(F)(F)F)nn2C)ccc1Cl [Ik-289] | 4.05^b)
CC(CF)NC(=O)c1cc(NC(=O)c2c(C(F)(F)F)c(C(F)(F)C(F)(F)F)nn2C)ccc1Cl (stereo not shown) [Ik-290] | 3.28^b)
Cn1nc(C(F)(F)C(F)(F)F)c(C(F)(F)F)c1C(=O)Nc1ccc(Cl)c(C(=O)NCCC(F)(F)F)c1 [Ik-291] | 3.53^b)
CC(C#N)NC(=O)c1cc(NC(=O)c2c(C(F)(F)F)c(C(F)(F)C(F)(F)F)nn2C)ccc1Cl (stereo not shown) [Ik-292] | 3.02^b)
C#CC(C)NC(=O)c1cc(NC(=O)c2c(C(F)(F)F)c(C(F)(F)C(F)(F)F)nn2C)ccc1Cl (stereo not shown) [Ik-293] | 3.28^b)
C[C@H](NC(=O)c1cc(NC(=O)c2c(C(F)(F)F)c(C(F)(F)C(F)(F)F)nn2C)ccc1Cl)C(F)(F)F [Ik-294] | 3.63^b)
C/C(Cl)=C/CNC(=O)c1cc(NC(=O)c2c(C(F)(F)F)c(C(F)(F)C(F)(F)F)nn2C)ccc1Cl [Ik-295] | 3.73^b)
Cn1nc(C(F)(F)C(F)(F)F)c(C(F)(F)F)c1C(=O)Nc1ccc(Cl)c(C(=O)NC2(C(F)(F)F)CC2)c1 [Ik-296] | 3.58^b)
